Patent US5691366A, “Nitro compounds, process for preparation thereof and use thereof” (Fujisawa Pharmaceutical Co., Ltd., priority 1991, dated 1997)

Tests used:
[1] = system: Mean Arterial Blood Pressure in Anesthetized Rats; experiment: Effect on mean arterial blood pressure in anesthetized rats (intravenous); format: in vivo, rat (male Sprague-Dawley); conditions: for Hypotensive effect T 1/2: i.v., time to recover to half of maximal decrease
Procedure: Male Sprague-Dawley rats, aged 9-12 weeks, were anesthetized with urethane (1.4 g/kg i.p.). A polyethylene cannula filled with heparin solution was inserted into the femoral artery of the rats to measure mean blood pressure. Mean blood pressure was measured with a pressure transducer and recorded on a polygraph. The test compound dissolved in ethanol, polyethylene glycol and distilled water (1:1:2), were administered intraveneously in a volume of 0.25 ml/kg. Intravenous hypothypotensive effects of each compound were expressed as the maximal decrease (R max) and the half time (T 1/2). Briefly, R max was expressed as maximal % change compared to mean blood pressure prior to the administration of compound. T 1/2 was expressed as a time during which the hypotensive effect recovered to half of the maximal decrease.

[2] = system: Mean Arterial Blood Pressure in Conscious Rats; experiment: Effect on mean arterial blood pressure in conscious rats (oral); format: in vivo, rat (male Sprague-Dawley); conditions: for Hypotensive effect Dur.: time to recover to 5% of maximal decrease; for Hypotensive effect T 1/2: time to recover to half of maximal decrease; for inhibition in vivo at 10 mg/kg / inhibition in vivo at 32 mg/kg: Rattus norvegicus, po, maximal % decrease of mean blood pressure, read-out: Hypotensive effect R max
Procedure: Male Sprague-Dawley rats, aged 9-11 weeks, were anesthetized with ether and a polyethylene cannula filled with heparin solution was inserted into the femoral artery of the rats to measure mean blood pressure. Mean blood pressure was measured with a pressure transducer and recorded on a polygraph. Two hours after operation, the drug suspended in 0.5% methyl cellulose was administered orally in a volume of 5 ml/kg. Oral hypotensive effects of each compound were expressed as the maximal decrease (R max), the half time (T 1/2) and the duration (Dur.). Briefly, R max was expressed as maximal % change compared to mean blood pressure prior to the administration of compound. T 1/2 was expressed as a time during which the hypotensive effect recovered to half of the maximal decrease. Duration was expressed as a time during which the hypotensive effect recovered to 5% of the maximal decrease.

[3] = Rattus norvegicus, iv, 0.32 mg/kg, maximal % decrease of mean blood pressure, read-out: Hypotensive effect R max
[4] = Rattus norvegicus, iv, 1.0 mg/kg, maximal % decrease of mean blood pressure, read-out: Hypotensive effect R max

CCC(C(C)=CC(CNC(=O)c1cccnc1)=NO)[N+](=O)[O-] (single isomer, unassigned) [Example 18 A, N-(2-hydroxyimino-4-methyl-5-nitro-3-hepten-1-yl)-3-pyridinecarboxamide]
inhibition in vivo at 0.32 mg/kg [1, 3]: 10.2% | inhibition in vivo at 1 mg/kg [1, 4]: 33.6% | Hypotensive effect T 1/2 ([1]; 1.0 mg/kg): 31.5 min | Hypotensive effect Dur. ([2]; 10 mg/kg): 57.0 min | Hypotensive effect T 1/2 ([2]; 10 mg/kg): 40.1 min | Hypotensive effect Dur. ([2]; 32 mg/kg): 156.4 min | Hypotensive effect T 1/2 ([2]; 32 mg/kg): 88.7 min | inhibition in vivo at 10 mg/kg ([2]; 10 mg/kg): 25.7% | inhibition in vivo at 32 mg/kg ([2]; 32 mg/kg): 46.9%

CCC(C(C)=CC(CNC(=O)c1cccnc1)=NO)[N+](=O)[O-] (single isomer, unassigned) [Example 18 B, N-(2-hydroxyimino-4-methyl-5-nitro-3-hepten-1-yl)-3-pyridinecarboxamide]
Hypotensive effect T 1/2 ([1]; 1.0 mg/kg): 20.2 min | Hypotensive effect Dur. ([2]; 10 mg/kg): 54.7 min | Hypotensive effect T 1/2 ([2]; 10 mg/kg): 26.4 min | Hypotensive effect Dur. ([2]; 32 mg/kg): 97.2 min | Hypotensive effect T 1/2 ([2]; 32 mg/kg): 56.1 min

CC(=CC(CNC(=O)c1cccnc1)=NO)C(C)[N+](=O)[O-] (single isomer, unassigned) [Example 19 A, N-(2-Hydroxyimino-4-methyl-5-nitro-3-hexen-1-yl)-3-pyridinecarboxamide]
inhibition in vivo at 0.32 mg/kg [1, 3]: 40.3% | Hypotensive effect T 1/2 ([1]; 0.32 mg/kg): 12.6 min

CC(=CC(CNC(=O)c1cccnc1)=NO)C(C)[N+](=O)[O-] (single isomer, unassigned) [Example 19 B, N-(2-Hydroxyimino-4-methyl-5-nitro-3-hexen-1-yl)-3-pyridinecarboxamide]
Hypotensive effect T 1/2 ([1]; 0.32 mg/kg): 11.0 min

CCC(=CC(CNC(=O)c1cccnc1)=NO)C(CC)[N+](=O)[O-] (single isomer, unassigned) [Example 25 A, N-(4-Ethyl-2-hydroxyimino-5-nitro-3-hepten-1-yl)-3-pyridinecarboxamide]
inhibition in vivo at 0.32 mg/kg [1, 3]: 24.1% | Hypotensive effect T 1/2 ([1]; 0.32 mg/kg): 13.1 min | Hypotensive effect T 1/2 ([2]; 10 mg/kg): 22.5 min | Hypotensive effect T 1/2 ([2]; 32 mg/kg): 56.7 min | inhibition in vivo at 32 mg/kg ([2]; 32 mg/kg): 26%

CCC(=CC(CNC(=O)c1cccnc1)=NO)C(CC)[N+](=O)[O-] (single isomer, unassigned) [Example 25 B, N-(4-Ethyl-2-hydroxyimino-5-nitro-3-hepten-1-yl)-3-pyridinecarboxamide]
Hypotensive effect T 1/2 ([2]; 10 mg/kg): 14.6 min

CCC(=CC(CNC(=O)c1cccnc1C)=NO)C(C)[N+](=O)[O-] (single isomer, unassigned) [Example 30 A, N-(4-Ethyl-2-hydroxyimino-5-nitro-3-hexen-1-yl)-2-methyl-3-pyridinecarboxamide]
inhibition in vivo at 0.32 mg/kg [1, 3]: 37.9% | Hypotensive effect T 1/2 ([1]; 0.32 mg/kg): 16.9 min | Hypotensive effect Dur. ([2]; 10 mg/kg): 108.0 min | Hypotensive effect T 1/2 ([2]; 10 mg/kg): 36.0 min | Hypotensive effect Dur. ([2]; 32 mg/kg): 211.1 min | Hypotensive effect T 1/2 ([2]; 32 mg/kg): 56.2 min | inhibition in vivo at 10 mg/kg ([2]; 10 mg/kg): 40.6% | inhibition in vivo at 32 mg/kg ([2]; 32 mg/kg): 39.3%

CCC(=CC(CNC(=O)c1cccnc1C)=NO)C(C)[N+](=O)[O-] (single isomer, unassigned) [Example 30 B, N-(4-Ethyl-2-hydroxyimino-5-nitro-3-hexen-1-yl)-2-methyl-3-pyridinecarboxamide]
Hypotensive effect T 1/2 ([1]; 0.32 mg/kg): 13.0 min | Hypotensive effect T 1/2 ([2]; 10 mg/kg): 20.9 min

CCC(=CC(CNC(=O)c1cccnc1SC)=NO)C(C)[N+](=O)[O-] (single isomer, unassigned) [Example 31 A, N-(4-Ethyl-2-hydroxyimino-5-nitro-3-hexen-1-yl)-2-methylthio-3-pyridinecarboxamide]
inhibition in vivo at 0.32 mg/kg [1, 3]: 24.3% | Hypotensive effect T 1/2 ([2]; 10 mg/kg): 10.4 min | inhibition in vivo at 10 mg/kg ([2]; 10 mg/kg): 14.9%

CCC(=CC(CNC(=O)c1cccnc1O)=NO)C(C)[N+](=O)[O-] (single isomer, unassigned) [Example 33 A, N-(4-Ethyl-2-hydroxyimino-5-nitro-3-hexen-1-yl)-2-hydroxy-3-pyridinecarboxamide]
inhibition in vivo at 0.32 mg/kg [1, 3]: 20.9% | Hypotensive effect T 1/2 ([1]; 0.32 mg/kg): 11.9 min | Hypotensive effect T 1/2 ([2]; 10 mg/kg): 18.3 min | inhibition in vivo at 10 mg/kg ([2]; 10 mg/kg): 23.1%

CCC(=CC(CNC(=O)c1nc[nH]c1C)=NO)C(C)[N+](=O)[O-] (single isomer, unassigned) [Example 45 A, N-(4-Ethyl-2-hydroxyimino-5-nitro-3-hexen-1-yl)-5-methy-4-imidazolecarboxamide]
inhibition in vivo at 0.32 mg/kg [1, 3]: 31.2% | Hypotensive effect T 1/2 ([1]; 0.32 mg/kg): 11.9 min | Hypotensive effect Dur. ([2]; 10 mg/kg): 52.3 min | Hypotensive effect T 1/2 ([2]; 10 mg/kg): 26.6 min | inhibition in vivo at 10 mg/kg ([2]; 10 mg/kg): 35.4%

CC(C)C(=CC(CNC(=O)c1cccnc1)=NO)C(C)[N+](=O)[O-] (stereo not drawn) [Example 20, N-(2-Hydroxyimino-4-isopropyl-5-nitro-3-hexen-1-yl)-3-pyridinecarboxamide]
inhibition in vivo at 0.32 mg/kg [1, 3]: 3.8% | inhibition in vivo at 3.2 mg/kg ([1]; Rattus norvegicus, iv, 3.2 mg/kg, maximal % decrease of mean blood pressure, read-out: Hypotensive effect R max): 48.4% | Hypotensive effect T 1/2 ([1]; 3.2 mg/kg): 20.1 min | Hypotensive effect T 1/2 ([2]; 10 mg/kg): 28.5 min | inhibition in vivo at 10 mg/kg ([2]; 10 mg/kg): 20.1%

O=C(NCC(C=C1CCCCC1[N+](=O)[O-])=NO)c1cccnc1 (stereo not drawn) [Example 21, N-[2-Hydroxyimino-3-(2-nitrocyclohexylidene)propyl]-3-pyridinecarboxamide]
inhibition in vivo at 0.32 mg/kg [1, 3]: 26.5% | Hypotensive effect T 1/2 ([1]; 0.32 mg/kg): 13.1 min | Hypotensive effect Dur. ([2]; 10 mg/kg): 67.7 min | Hypotensive effect T 1/2 ([2]; 10 mg/kg): 34.1 min | Hypotensive effect Dur. ([2]; 32 mg/kg): > 300 min | Hypotensive effect T 1/2 ([2]; 32 mg/kg): 88.1 min | inhibition in vivo at 10 mg/kg ([2]; 10 mg/kg): 34.3% | inhibition in vivo at 32 mg/kg ([2]; 32 mg/kg): 34.3%

COCC(C(C)=CC(CNC(=O)c1ccncc1)=NO)[N+](=O)[O-] (stereo not drawn) [Example 22, N-(2-Hydroxyimino-6-methoxy-4-methyl-5-nitro-3-hexen-1-yl)-4-pyridinecarboxamide]
inhibition in vivo at 0.32 mg/kg [1, 3]: 17.7% | inhibition in vivo at 1 mg/kg [1, 4]: 35.9% | Hypotensive effect T 1/2 ([1]; 1.0 mg/kg): 24.9 min | Hypotensive effect T 1/2 ([2]; 10 mg/kg): 29.9 min | Hypotensive effect T 1/2 ([2]; 32 mg/kg): 63.2 min | inhibition in vivo at 10 mg/kg ([2]; 10 mg/kg): 19.2% | inhibition in vivo at 32 mg/kg ([2]; 32 mg/kg): 25.7%

CCC(=CC(CNC(C)=O)=NO)C(CC)[N+](=O)[O-] (stereo not drawn) [Example 24, 1Acetylamino-4-ethyl-2-hydroxyimino-5-nitro-3-heptene]
inhibition in vivo at 0.32 mg/kg [1, 3]: 31.8% | Hypotensive effect T 1/2 ([1]; 0.32 mg/kg): 13.6 min | Hypotensive effect T 1/2 ([2]; 10 mg/kg): 16.6 min | inhibition in vivo at 10 mg/kg ([2]; 10 mg/kg): 40.7%

CCC(=CC(CNC(=O)c1cnccc1C(N)=O)=NO)C(C)[N+](=O)[O-] (stereo not drawn) [Example 28, 3-[N-(4-Ethyl-2-hydroxyimino-5-nitro-3-hexen-1-yl)-carbamoyl]-4-pyridinecarboxamide]
inhibition in vivo at 0.32 mg/kg [1, 3]: 22.2% | inhibition in vivo at 1 mg/kg [1, 4]: 31.4% | Hypotensive effect T 1/2 ([1]; 1.0 mg/kg): 11.9 min

CCC(=CC(CNC(=O)c1ccncc1)=NO)C(C)[N+](=O)[O-] (stereo not drawn) [Example 29, N-(4-Ethyl-2-hydroxyimino-5-nitro-3-hexen-1-yl)-4-pyridinecarboxamide]
inhibition in vivo at 0.32 mg/kg [1, 3]: 35% | Hypotensive effect T 1/2 ([1]; 0.32 mg/kg): 12.3 min | Hypotensive effect Dur. ([2]; 10 mg/kg): 72.5 min | Hypotensive effect T 1/2 ([2]; 10 mg/kg): 23.5 min | Hypotensive effect Dur. ([2]; 32 mg/kg): > 300 min | Hypotensive effect T 1/2 ([2]; 32 mg/kg): 165 min | inhibition in vivo at 10 mg/kg ([2]; 10 mg/kg): 31.4% | inhibition in vivo at 32 mg/kg ([2]; 32 mg/kg): 37.1%

CCC(=CC(CNC(=O)c1cccnc1Cl)=NO)C(C)[N+](=O)[O-] (stereo not drawn) [Example 32, N-(4-Ethyl-2-hydroxyimino-5-nitro-3-hexen-1-yl)-2-chloro-3-pyridinecarboxamide]
inhibition in vivo at 0.32 mg/kg [1, 3]: 42.5% | Hypotensive effect T 1/2 ([1]; 0.32 mg/kg): 13.6 min | Hypotensive effect Dur. ([2]; 10 mg/kg): 50.9 min | Hypotensive effect T 1/2 ([2]; 10 mg/kg): 19.6 min | inhibition in vivo at 10 mg/kg ([2]; 10 mg/kg): 43.2%

CCC(=CC(CNC(=O)C(N)=O)=NO)C(C)[N+](=O)[O-] (stereo not drawn) [Example 40 A]
Hypotensive effect Dur. ([2]; 10 mg/kg): 71.1 min | Hypotensive effect T 1/2 ([2]; 10 mg/kg): 25.2 min | inhibition in vivo at 10 mg/kg ([2]; 10 mg/kg): 47.8%

CCC(=CC(CNC(=O)C(N)=O)=NO)C(C)[N+](=O)[O-] (stereo not drawn) [Example 40]
inhibition in vivo at 0.32 mg/kg [1, 3]: 52.3% | Hypotensive effect T 1/2 ([1]; 0.32 mg/kg): 11.3 min

CCC(=CC(CNC(=O)Cc1cccnc1)=NO)C(C)[N+](=O)[O-] (stereo not drawn) [Example 42, N-(4-Ethyl-2-hydroxyimino-5-nitro-3-hexen-1-yl)-3-pyridylacetamide]
inhibition in vivo at 0.32 mg/kg [1, 3]: 44.4% | Hypotensive effect T 1/2 ([1]; 0.32 mg/kg): 14.2 min

CCC(=CC(CNC(=O)c1sc(C)nc1C)=NO)C(C)[N+](=O)[O-] (stereo not drawn) [Example 43, N-(4-Ethyl-2-hydroxyimino-5-nitro-3-hexen-1-yl)-2,4-dimethylthiazole-5-carboxamide]
inhibition in vivo at 0.32 mg/kg [1, 3]: 53.1%
